# Test results published in patent publication US5002969A, “Pharmaceutical compositions containing titanocene complexes and use of these complexes as cytostatic agents” (priority 1985, dated 1991).
# What was measured:
# Ehrlich ascites tumor = assay: Activity against Ehrlich Ascites Tumor; assay type: in vivo, Female CF1 mice; conditions: single i.p. dose, 24 h after tumor inoculation
# Method: Female CF1 mice are each given about 6×10^6 Ehrlich ascites tumor cells by means of intraperitoneal injection and, 24 hours later, a single intraperitoneal dose of substance dose range of 20 to 500 mg/kg) in physiological saline solution (0.4 ml). In each case 5 to 10 animals are tested per dose. If appropriate, the preparation can be buffered to a pH of 4 to 7, for example with sodium bicarbonate or tris-(hydroxymethyl)-aminomethane, in order to avoid local irritation at the injection site. A group of untreated control animals which were injected intraperitoneally with 0.4 ml of physiological saline solution without administration of the substance is also run for each test series.
# The tumor development in the individual dose ranges is evaluated by means of the weight course and survival time. The dose-dependent number of tumor deaths, toxicity deaths and surviving, and the associated percentage increase in the average survival time are determined for each substance.
# B16 Melanoma = assay: Activity against B16 Melanoma; assay type: in vivo, female B6 D2 F1 mice; conditions: day 10
# Method: (§1) The B16 melanoma and colon 38 carcinoma used were obtained from the NCI Liasion Office, Institut Jules Bordet, Brussels, Belgium and, for propagation, were kept as solid, subcutaneously growing tumor lines on male C57BL/6J mice. For testing, the tumors were transplanted to female B6 D2 F1 mice. All animals were kept under standard conditions (22°-23° C., tap water and altromin food ad libitum, 12-h light-dark rhythm).
# (§2) For tumor transplantation on day 0 of the testing experiments, solid tumors were removed from donor mice, minced with scissors and reduced to small particles. After suspension in twofold volumes of Hank's balanced salt solution, volumes of 0.3 ml were inoculated subcutaneously into the axillary region, resulting in the growth of solitary solid tumors.
# (§3) The test compounds were administered either as a single injection on day 1 or as three injections on days 1, 3 and 5, or as five injections on days 1, 3, 5, 7 and 9. The different doses applied and the animal distribution are recorded in table 4. The substances, dissolved or suspended in a DMSO-saline mixture (1/9=v/v), were always injected intraperitoneally. The concentrations were selected in such a manner that each mouse received a total volume of 0.4 to 0.5 ml. Control animals only obtained one, three or five injections of the DMSO-saline mixture (0.5 ml/animal) without drug addition.
# (§4) The number of deaths was recorded daily. Deaths occuring within 7 days (single injection), 11 days (three injections) or 15 days (five injections) after tumor transplantation were defined as deaths due to substance toxicity.
# (§5) In the case of B16 melonoma, the tumors were removed and weighed on day 10 for the single and three injections or on day 15 for the five injections. Colon 38 carcinomas were always evaluated on day 15 of the experiment.
# Colon 38 Carcinoma = assay: Activity against Colon 38 Carcinoma; assay type: in vivo, female B6 D2 F1 mice; conditions: day 15
# Method: as §1, §2, §3, §4, §5
# solid Sarcoma 180 = assay: Activity against solid Sarcoma 180; conditions: for T/C / Tumor Weight: day 9; for Tumor Weight: mean ± SD
# Method: The sarcoma 180 used in the present study was obtained from the Deutsche Krebsforschungszentrum (Heidelberg, Germany). It was propagated as an intraperitoneally growing tumor line on female NMRI mice which were kept under standard conditions (altromin food and tap water ad libitum, 12-h dark-light rhythm).
# Antitumor testing was performed against sarcoma 180 in fluid ascitic as well as in solid, subcutaneously growing form. For testing against ascitic or solid sarcoma 180, the ascitic tumor of donor mice was harvested, diluted 1:3 (v:v) with saline and injected either into the peritoneal cavity or, subcutaneously, into the axillary region of female NMRI mice. Each animal obtained about 10^7 tumor cells. The day of tumor transplantation was defined as day 0 of the experiment.
# Before administration of the test compounds, samples corresponding to the applied doses were dissolved in DMSO, filled up with ninefold volumes of saline and applied to mice in volumes of 0.02 ml per g of body weight. The different doses were either given as a single injection on day 1 or as triple injections on days 1, 3 and 5. […] The untreated, tumor-bearing control animals only received injections of the DMSO/saline mixture (0.02 ml/g). Every day occuring deaths were noted. Deaths within 8 days after tumor transplantation were defined as toxic deaths due to substance toxicity. In the case of ascitic sarcoma 180, the parameters evaluated were the values of mean survival time (MST) and of increase in life span (ILS); the latter was calculated by relating the mean survival time of a treated group to that of the corresponding control group expressed as a percentage and by subtracting 100%. The key date for the evaluation of the experiment and for determining the number of surviving (cured) animals was day 80. In the case of solid sarcoma 180, the tumors were removed on day 9 after transplantation and weighted to an accuracy of ±1 mg. From tumor weights of treated and control animals, the T/C ratios were calculated as follows: [formula]
# ascitic Sarcoma 180 = assay: Activity against ascitic Sarcoma 180; assay type: in vivo, female NMRI mice; conditions: for Survivors/Animals Treated: day 80; for MST (mean survival time): mean (range)
# Text: Each animal obtained about 10^7 tumor cells.
# Every day occuring deaths were noted.
compound,measurement,setting,value
"Cl.Cl.Nc1ccc([S][Ti]([S]c2ccc(N)cc2)([CH]2C=CC=C2)[CH]2C=CC=C2)cc1 [Compound 1, Bis(p-aminothiophenolato)bis(.eta.^5 -cyclopentadienyl)titanium(IV)-dihydrochloride]",Optimal Treating Rate,Ehrlich ascites tumor,100%
same,Therapeutic Index (LD50/ED90),Ehrlich ascites tumor,"4,3"
same,T/C,B16 Melanoma; 1 × 100 mg/kg i.p.,80%
same,T/C,B16 Melanoma; 3 × 60 mg/kg i.p.,36%
same,T/C,Colon 38 Carcinoma; 1 × 100 mg/kg i.p.,61%
same,T/C,Colon 38 Carcinoma; 3 × 60 mg/kg i.p.,38%
same,T/C,solid Sarcoma 180; 1 × 60 mg/kg,109%
same,Tumor Weight,solid Sarcoma 180; 1 × 60 mg/kg,"1,30 ± 0,30 g"
same,T/C,solid Sarcoma 180; 1 × 100 mg/kg,86%
same,Tumor Weight,solid Sarcoma 180; 1 × 100 mg/kg,"1,03 ± 0,26 g"
same,T/C,solid Sarcoma 180; 3 × 60 mg/kg,39%
same,Tumor Weight,solid Sarcoma 180; 3 × 60 mg/kg,"0,47 ± 0,12 g"
same,ILS (increase in life span),ascitic Sarcoma 180; 1 × 60 mg/kg,15%
same,ILS (increase in life span),ascitic Sarcoma 180; 1 × 100 mg/kg,139%
same,Survivors/Animals Treated,ascitic Sarcoma 180; 1 × 100 mg/kg,1/5
same,MST (mean survival time),ascitic Sarcoma 180; 1 × 100 mg/kg,"39,4 (19-80) d"
"Cl.Nc1ccc([S][Ti]([Cl])([CH]2C=CC=C2)[CH]2C=CC=C2)cc1 [Compound 2, p-aminothiophenolato-chloro-bis(.eta.^5 -cyclopentadienyl)titanium(IV)-hydrochloride]",Optimal Treating Rate,Ehrlich ascites tumor,100%
same,Therapeutic Index (LD50/ED90),Ehrlich ascites tumor,"4,4"
"O=C([O][Ti+2][O]C(=O)C(Cl)(Cl)Cl)C(Cl)(Cl)Cl.c1cc[cH-]c1.c1cc[cH-]c1 [Compound 4, Bis(trichloroacetato)bis(.eta.^5 -cyclopentadienyl)titanium(IV)]",Optimal Treating Rate,Ehrlich ascites tumor,100%
same,Therapeutic Index (LD50/ED90),Ehrlich ascites tumor,"5,5"
same,T/C,B16 Melanoma; 1 × 320 mg/kg i.p.,85%
same,T/C,B16 Melanoma; 3 × 300 mg/kg i.p.,41%
same,T/C,Colon 38 Carcinoma; 1 × 320 mg/kg i.p.,48%
same,T/C,solid Sarcoma 180; 1 × 220 mg/kg,96%
same,Tumor Weight,solid Sarcoma 180; 1 × 220 mg/kg,"1,14 ± 0,26 g"
same,T/C,solid Sarcoma 180; 1 × 320 mg/kg,67%
same,Tumor Weight,solid Sarcoma 180; 1 × 320 mg/kg,"0,79 ± 0,28 g"
same,T/C,solid Sarcoma 180; 3 × 200 mg/kg,106%
same,Tumor Weight,solid Sarcoma 180; 3 × 200 mg/kg,"1,26 ± 0,30 g"
same,Toxicity Deaths/Animals Treated,solid Sarcoma 180; 3 × 300 mg/kg,1/5
same,T/C,solid Sarcoma 180; 3 × 300 mg/kg,37%
same,Tumor Weight,solid Sarcoma 180; 3 × 300 mg/kg,"0,44 ± 0,14 g"
same,ILS (increase in life span),ascitic Sarcoma 180; 1 × 220 mg/kg,4%
same,MST (mean survival time),ascitic Sarcoma 180; 1 × 220 mg/kg,"17,2 (15-20) d"
same,ILS (increase in life span),ascitic Sarcoma 180; 1 × 320 mg/kg,96%
same,Survivors/Animals Treated,ascitic Sarcoma 180; 1 × 320 mg/kg,1/5
same,MST (mean survival time),ascitic Sarcoma 180; 1 × 320 mg/kg,"32,4 (18-80) d"
